Drawing on ChEMBL document CHEMBL5030547, “Synthesis and biological studies of new piperidino-1,2,3-triazole hybrids with 3-aryl isoxazole side chains” (Bioorg Med Chem Lett, 2021), this text covers IC50 and inhibition for 14 molecules.

Assay [1] has as its system Huh-7. Kind of assay: Cytotoxicity against human Huh-7 cells assessed as reduction in cell viability after 48 hrs. Type of assay: functional, cell-based. Particulars: Huh-7, 48 h.
The subject of assay [2] is HCT-116. Kind of assay: Cytotoxicity against human HCT-116 cells assessed as reduction in cell viability after 48 hrs. It is filed as functional, cell-based. As to conditions: HCT-116, 48 h.
Assay [3] has as its system PC-3. The assay is described as follows: Cytotoxicity against human PC-3 cells assessed as reduction in cell viability after 48 hrs. Type of assay: functional, cell-based. As to conditions: PC-3, 48 h.
The test system of assay [4] is MDA-MB-468. The assay is described as follows: Cytotoxicity against human MDA-MB-468 cells assessed as reduction in cell viability after 48 hrs. As to conditions: MDA-MB-468, 48 h. Type of assay: functional, cell-based.
Assay [5] relates to Caco-2. Kind of assay: Cytotoxicity against human Caco-2 cells assessed as reduction in cell viability after 48 hrs. As to conditions: Caco-2, 48 h. It is filed as functional, cell-based.
The test system of assay [6] is MCF7. Kind of assay: Cytotoxicity against human MCF7 cells assessed as reduction in cell viability after 48 hrs. It is filed as functional, cell-based. Particulars: MCF7, 48 h.
The subject of assay [7] is Fibroblast. Kind of assay: Cytotoxicity against human skin fibroblast cells assessed as reduction in cell viability after 48 hrs. It is filed as cell-based.
Assay [8] has as its system MDA-MB-231. The assay is described as follows: Cytotoxicity against human MDA-MB-231 cells assessed as reduction in cell viability after 48 hrs. Type of assay: functional, cell-based. As to conditions: MDA-MB-231, 48 h.
For assay [9], the system named is MCF7. The assay is described as follows: Inhibition of Bcl-XL- PUMA protein-protein interaction in human MCF7 cells at 20 uM incubated for overnight by BRET assay relative to control. Type of assay: cell-based.
A short description of assay [10]: Inhibition of Bcl-XL- PUMA protein-protein interaction in human MCF7 cells incubated for overnight by BRET assay. It is filed as cell-based. Background: BRET reads energy transfer from a luciferase to a nearby fluorophore.

As usually defined, the IC50 is the concentration that gives 50% inhibition. For the molecule `N#Cc1ccc(-c2cc(COC(Cc3cn(C4CCN(Cc5ccc([N+](=O)[O-])cc5)CC4)nn3)c3ccc(Br)cc3)on2)cc1` (centres undefined), the IC50 in assay [1] (read-out: IC50) is 5 µM; in [2] it was above 25 µM; in assay [3], 2 µM; in [4], 5 µM; in assay [5] it was 2 µM; in [6] it was 3 µM. Besides, the IC50 in assay [7] and in assay [8] was above 25 µM in each case.
For `CC[C@H](CO)Nc1nc(NCc2ccccc2)c2ncn(C(C)C)c2n1` [SELICICLIB], the IC50 turned out to be 9 µM in assay [1]; 11 µM in assay [3]; 18 µM in [4]; 15 µM in assay [7]; 17 µM in [8].
Consider `O=[N+]([O-])c1ccc(CN2CCC(n3cc(CC(OCc4cc(-c5ccccc5Br)no4)c4ccc(Br)cc4)nn3)CC2)cc1` (centres undefined), for which the IC50 in assay [1] (read-out: IC50) is above 25 µM; in [2], above 25 µM; in assay [3] it was above 25 µM; in assay [4] it was above 25 µM; in assay [5], 3 µM; in assay [6], 6 µM. Further, the IC50 in assay [7] and in assay [8] was above 25 µM throughout.
Take `N#Cc1cccc(-c2cc(COC(Cc3cn(C4CCN(Cc5ccc([N+](=O)[O-])cc5)CC4)nn3)c3ccc(Br)cc3)on2)c1` (centres undefined): the half-maximal inhibitory concentration (IC50) in assay [1] (read-out: IC50) was 3 µM; in assay [2], above 25 µM; in assay [3] it was above 25 µM; in assay [4] it was above 25 µM; in assay [5] it was 3 µM; in assay [6], 2 µM. Moreover, the IC50 in assay [7] and in assay [8] was above 25 µM throughout.
`COc1cccc2c1C(=O)c1c(O)c3c(c(O)c1C2=O)C[C@@](O)(C(=O)CO)C[C@@H]3O[C@H]1C[C@H](N)[C@H](O)[C@H](C)O1` [DOXORUBICIN]: the IC50 amounted to 0.02 µM in assay [1] (read-out: IC50); 0.08 µM in [2]; 0.06 µM in assay [4]; 0.1 µM in [6]; 0.02 µM in assay [7]; 0.04 µM in assay [8].
With `O=[N+]([O-])c1ccc(CN2CCC(n3cc(CC(OCc4cc(-c5ccc(F)cc5)no4)c4ccc(Br)cc4)nn3)CC2)cc1` (centres undefined), the IC50 was 2 µM in assay [1] (read-out: IC50); above 25 µM in assay [2]; above 25 µM in [3]; 4 µM in assay [4]; 3 µM in assay [5]; 7 µM in assay [6]. The IC50 in assay [7] and in [8] was above 25 µM in each case.
`O=[N+]([O-])c1ccc(CN2CCC(n3cc(CC(OCc4cc(-c5ccccc5)no4)c4ccc(Br)cc4)nn3)CC2)cc1` (centres undefined): the IC50 in assay [1] (read-out: IC50) was 7 µM; in [2], above 25 µM; in [3] it was above 25 µM; in assay [4], 3 µM; in assay [5] it was 7 µM; in [6], above 25 µM. Further, the IC50 in assay [7] and in [8] was above 25 µM in each case.
As for `O=[N+]([O-])c1ccc(CN2CCC(n3cc(CC(OCc4cc(-c5cccc(F)c5)no4)c4ccc(Br)cc4)nn3)CC2)cc1` (centres undefined), the IC50 in assay [1] (read-out: IC50) was 3 µM; in [2], 6 µM; in assay [3], 9 µM; in assay [4] it was 3 µM; in assay [5] it was 5 µM; in assay [6], 8 µM. Further, the IC50 was 10 µM in [7] and 5 µM in [8].
As usually defined, the inhibition is the share of the control response that was lost under treatment. Low values mean a response near the control, high ones a response far below the control. With `O=[N+]([O-])c1ccc(CN2CCC(n3cc(CC(OCc4cc(-c5ccccc5F)no4)c4ccc(Br)cc4)nn3)CC2)cc1` (centres undefined), the IC50 in [1] (read-out: IC50) was found to be 2 µM; in assay [2] it was 9 µM; in assay [3], 6 µM; in assay [4], 4 µM; in assay [5] it was 4 µM; in assay [6] it was 8 µM. Also, the IC50 in assay [10] was 3.8 µM; in assay [7] it was above 25 µM; in assay [8], 4 µM. In addition, in assay [9], the inhibition turned out to be 10%.
Take `COc1ccccc1-c1cc(COC(Cc2cn(C3CCN(Cc4ccc([N+](=O)[O-])cc4)CC3)nn2)c2ccc(Br)cc2)on1` (centres undefined): the IC50 in assay [1] (read-out: IC50) was 5 µM; in assay [2], above 25 µM; in assay [3] it was above 25 µM; in assay [4] it was above 25 µM; in [5], above 25 µM; in [6], 3 µM. Moreover, the IC50 in [7] and in assay [8] was above 25 µM throughout.
Consider `O=[N+]([O-])c1ccc(CN2CCC(n3cc(CC(OCc4cc(-c5cccc(Br)c5)no4)c4ccc(Br)cc4)nn3)CC2)cc1` (centres undefined), for which the IC50 in assay [1] (read-out: IC50) is 3 µM; in [2], above 25 µM; in assay [3], above 25 µM; in [4], above 25 µM; in [5], 5 µM; in assay [6] it was 6 µM. Also, the IC50 in assay [7] and in assay [8] was above 25 µM in each case.
As for `COc1cccc(-c2cc(COC(Cc3cn(C4CCN(Cc5ccc([N+](=O)[O-])cc5)CC4)nn3)c3ccc(Br)cc3)on2)c1` (centres undefined), the IC50 in assay [1] (read-out: IC50) was 5 µM; in assay [2], above 25 µM; in assay [3], above 25 µM; in [4] it was above 25 µM; in assay [5], 5 µM; in assay [6], 7 µM. For the same molecule, the IC50 in assay [7] and in [8] was above 25 µM each time.
Turning to `O=[N+]([O-])c1ccc(CN2CCC(n3cc(CC(OCc4cc(-c5ccc(Br)cc5)no4)c4ccc(Br)cc4)nn3)CC2)cc1` (centres undefined), the 50% inhibitory concentration (IC50) was 2 µM in [1] (read-out: IC50); above 25 µM in [2]; above 25 µM in assay [3]; 5 µM in [4]; 3 µM in [5]; 4 µM in [6]. The IC50 in [7] and in assay [8] was above 25 µM throughout.
Consider `COc1ccc(-c2cc(COC(Cc3cn(C4CCN(Cc5ccc([N+](=O)[O-])cc5)CC4)nn3)c3ccc(Br)cc3)on2)cc1` (centres undefined), for which the 50% inhibitory concentration (IC50) was 2 µM in [1] (read-out: IC50); above 25 µM in assay [2]; 3 µM in assay [3]; 9 µM in [4]; 3 µM in assay [5]; 4 µM in assay [6]. Besides, the IC50 in assay [7] and in [8] was above 25 µM each time.
